Activity calls are given as the source filed them. The rule behind the calls is not given here.
Assays:
[1] = biological target: T1, 3-oxo-5-alpha-steroid 4-dehydrogenase 1 (Homo sapiens, UniProt P18405); experiment: Inhibitory concentration against human Steroid 5-alpha-reductase type I in DU 145 cell culture using 3H androstenedione 5 nM as substrate; format: cell-based
T1 sequence (P18405 whole entry): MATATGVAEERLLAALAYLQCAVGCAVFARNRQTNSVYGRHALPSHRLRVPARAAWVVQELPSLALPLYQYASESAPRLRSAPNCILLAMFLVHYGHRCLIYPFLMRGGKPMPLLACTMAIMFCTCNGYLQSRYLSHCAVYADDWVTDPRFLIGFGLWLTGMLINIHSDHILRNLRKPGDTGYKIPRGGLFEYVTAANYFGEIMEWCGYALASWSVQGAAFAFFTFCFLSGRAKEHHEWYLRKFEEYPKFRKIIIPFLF

[2] = biological target: T2, 3-oxo-5-alpha-steroid 4-dehydrogenase 2 (Homo sapiens, UniProt P31213); experiment: Inhibitory activity against human Steroid 5-alpha-reductase type 2 using 18213 3H testosterone 210 nM as substrate
T2 sequence (P31213 whole entry): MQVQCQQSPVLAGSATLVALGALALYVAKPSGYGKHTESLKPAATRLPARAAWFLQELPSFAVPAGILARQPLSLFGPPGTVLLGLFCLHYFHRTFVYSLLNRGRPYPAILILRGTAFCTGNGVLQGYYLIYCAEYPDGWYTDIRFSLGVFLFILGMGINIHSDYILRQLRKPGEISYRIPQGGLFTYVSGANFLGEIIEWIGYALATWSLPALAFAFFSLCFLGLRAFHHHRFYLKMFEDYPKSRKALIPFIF

[3] = biological target: T3, 3-oxo-5-alpha-steroid 4-dehydrogenase 1 (Rattus norvegicus, UniProt P24008); experiment: Inhibitory activity against rat Steroid 5-alpha-reductase type I using 18213 3H testosterone 210 nM as substrate
T3 sequence (P24008 whole entry): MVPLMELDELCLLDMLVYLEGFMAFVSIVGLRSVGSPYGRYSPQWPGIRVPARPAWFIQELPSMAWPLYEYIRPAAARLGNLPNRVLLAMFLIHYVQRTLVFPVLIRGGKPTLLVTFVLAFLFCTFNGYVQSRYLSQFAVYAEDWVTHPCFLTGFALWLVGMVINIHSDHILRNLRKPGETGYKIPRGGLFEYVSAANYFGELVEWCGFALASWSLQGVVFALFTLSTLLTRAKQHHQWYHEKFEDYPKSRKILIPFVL

[4] = biological target: T4, 3-oxo-5-alpha-steroid 4-dehydrogenase 2 (Homo sapiens) (UniProt P31213); experiment: Percentage inhibition against human Steroid 5-alpha-reductase type 2 at 10 uM concentration using 18213 3H testosterone 210 nM as substrate
T4 sequence (whole entry): T2 sequence (P31213 whole entry)

[5] = biological target: T5, 3-oxo-5-alpha-steroid 4-dehydrogenase 1 (Rattus norvegicus) (UniProt P24008); experiment: Inhibition against rat Steroid 5-alpha-reductase type I at 10 uM concentration using 18213 3H testosterone 210 nM as substrate; No inhibition
T5 sequence (whole entry): T3 sequence (P24008 whole entry)

[6] = biological target: T4, 3-oxo-5-alpha-steroid 4-dehydrogenase 2 (Homo sapiens); experiment: Inhibition against human Steroid 5-alpha-reductase type 2 at 10 uM concentration using 18213 3H testosterone 210 nM as substrate
[7] = biological target: T6, 3-oxo-5-alpha-steroid 4-dehydrogenase 1 (Homo sapiens) (UniProt P18405); experiment: (§1) Inhibition against human Steroid 5-alpha-reductase type I in DU 145 cell culture at 10 uM concentration using 3H androstenedione 5 nM as substrate; format: cell-based
T6 sequence (whole entry): T1 sequence (P18405 whole entry)

[8] = biological target: T5, 3-oxo-5-alpha-steroid 4-dehydrogenase 1 (Rattus norvegicus); experiment: Inhibition against rat Steroid 5-alpha-reductase type I at 10 uM concentration using 18213 3H testosterone 210 nM as substrate
[9] = biological target: T2, 3-oxo-5-alpha-steroid 4-dehydrogenase 2; experiment: Inhibitory activity against human 5-alpha-reductase type 2 using 18213 3H testosterone 210 nM as substrate
[10] = biological target: T4, 3-oxo-5-alpha-steroid 4-dehydrogenase 2 (Homo sapiens); experiment: Inhibition against human 5-alpha-reductase type 2 at 10 uM concentration using 18213 3H testosterone 210 nM as substrate
[11] = biological target: T6, 3-oxo-5-alpha-steroid 4-dehydrogenase 1 (Homo sapiens); experiment: as §1
[12] = biological target: T6, 3-oxo-5-alpha-steroid 4-dehydrogenase 1 (Homo sapiens); experiment: Inhibition against human 5-alpha-reductase type 1 Steroid 5-alpha-reductase type I culture at 10 uM concentration using 3H androstenedione 5 nM as substrate
[13] = biological target: T3, 3-oxo-5-alpha-steroid 4-dehydrogenase 1; experiment: Inhibition against rat Steroid 5-alpha-reductase type I at 10 uM concentration using 18213 3H testosterone 210 nM as substrate: No inhibition

Structure (SMILES) | IC50 [1] [nM] | inhibition [6] [%] | inhibition [7] [%] | inhibition [8] [%] | also measured
CC(C)(C)NC(=O)[C@H]1CC[C@H]2[C@@H]3CC=C4C=C(C(=O)O)CC[C@]4(C)[C@H]3CC[C@]12C [EPRISTERIDE] | 1100 | – | – | – | IC50 [2]: 3 nM; IC50 [3]: 45 nM
O=C(O)c1ccc(-c2ccc3c(ccn3C3CCCCC3)c2)cc1 | – | – | – | – | inhibition [4]: 36%; inhibition [5]: inactive
CCCC(CCC)n1ccc2cc(-c3ccc(C(=O)O)cc3)ccc21 | 3200 | 10 | 75 | 43 | –
O=C(O)c1ccc(-c2ccc3c(ccn3C(c3ccccc3)c3ccccc3)c2)cc1 | 2780 | 40 | 81 | 26 | –

More lines, main results first:

IC50 [1] [nM] | inhibition [6] [%] | inhibition [7] [%] | inhibition [8] [%] | Structure (SMILES) | also measured
– | 24 | 72 | 17 | CCCCn1ccc2cc(-c3ccc(C(=O)O)cc3)ccc21 | –
– | – | – | 12 | O=C(O)c1ccc(-c2ccc3c(ccn3Cc3ccccc3)c2)cc1 | IC50 [9]: 6200 nM; inhibition [10]: 60%; inhibition [11]: 67%
2100 | – | – | – | O=C(O)c1ccc(-c2ccc3c(ccn3CC3CCCCC3)c2)cc1 | inhibition [4]: 50%; inhibition [12]: 81%; IC50 [13]: Not Active
